# Experimental data reported in patent US20050048508A1, “Trehalose receptor and method for detecting trehalose with the same” (KABUSHIKI KAISHA HAYASHIBARA SEIBUTSU KAGAKU KENKYUJO, priority 2002, published 2005).
# Legend:
# [1] = relative to sucrose; cited from earlier work
# [2] = biological target: T1, trehalose receptor (G protein α-subunits and T1R3) (Mus musculus, UniProt Q925D8, I706N); assay: Quantitation of trehalose using trehalose receptor, 96-well microplate fluorescence assay; type: cell-based; conditions: for Fluorescence intensity (integral value): 0.1 ml/well added to 100 µl cell suspension, ex 494 nm, em 516 nm
# T1 construct: expressed in transfected cells; host or cells: 293 cells, RCB 1637 (human embryonic kidney)
# T1 sequence (Q925D8 21-858 I706N): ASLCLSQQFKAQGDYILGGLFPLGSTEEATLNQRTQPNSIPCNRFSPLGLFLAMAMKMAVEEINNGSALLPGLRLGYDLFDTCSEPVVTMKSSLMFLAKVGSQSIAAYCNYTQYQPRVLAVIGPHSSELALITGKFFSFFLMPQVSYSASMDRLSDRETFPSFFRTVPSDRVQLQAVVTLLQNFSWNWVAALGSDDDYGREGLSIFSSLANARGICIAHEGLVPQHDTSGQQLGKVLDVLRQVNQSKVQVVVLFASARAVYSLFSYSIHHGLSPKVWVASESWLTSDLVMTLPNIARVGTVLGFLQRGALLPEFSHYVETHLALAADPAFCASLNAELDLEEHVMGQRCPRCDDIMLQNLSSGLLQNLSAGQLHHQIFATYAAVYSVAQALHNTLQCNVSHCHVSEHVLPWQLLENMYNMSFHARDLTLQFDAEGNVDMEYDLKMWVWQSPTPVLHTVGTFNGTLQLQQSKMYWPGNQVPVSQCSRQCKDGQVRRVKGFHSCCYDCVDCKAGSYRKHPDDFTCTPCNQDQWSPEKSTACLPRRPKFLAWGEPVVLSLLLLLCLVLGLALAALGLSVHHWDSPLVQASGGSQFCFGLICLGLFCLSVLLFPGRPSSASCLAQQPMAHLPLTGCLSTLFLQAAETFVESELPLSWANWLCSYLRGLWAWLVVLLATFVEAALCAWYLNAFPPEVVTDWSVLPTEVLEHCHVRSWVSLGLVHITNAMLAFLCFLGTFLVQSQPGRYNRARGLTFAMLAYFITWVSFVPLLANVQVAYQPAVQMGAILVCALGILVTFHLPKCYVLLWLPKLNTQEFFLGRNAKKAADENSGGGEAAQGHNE
# Method: The captioned reactivity test was conducted according to a conventional intracellular calcium ion assay: 293 Cells prepared in Example 3, capable of coexpressing the G protein α-subunits and the sweet taste receptor(s), were cultured in a plastic petri dish for cell culture until reaching its confluent phase. Thereafter, the cells were detached from the inner surface of the petri dish with a 0.05% (v/v) trypsin solution and a 0.53 mM EDTA solution, suspended in D-MEM supplemented with 10% (v/v) fetal calf serum to give a cell density of 1×10^6 cells/ml, and allowed to intake “FLUO-4. AM”, a reagent for detecting intracellular calcium ion commercialized by Molecular Probes Inc., Ore., USA, by adding to the cell suspension to give a final concentration of 2 μM and incubating the cells at 37 ° C. for 30 to 90 min. The resulting cells were washed with a buffer for detecting calcium ion, which contained 10 mM HEPES (pH 7.4), 130 mM sodium chloride, 5.4 mM potassium chloride, 2 mM calcium chloride, 1 mM magnesium chloride, 5.5 mM D-glucose, 0.1% (v/v) calf serum albumin, and 1 mM sodium pyruvate to remove the reagent remained extracellularly; suspended in a fresh preparation of the same buffer to give a cell density of 2.67 ×10^7 cells/ml; filtered with a membrane with a pore size of 100 μm mesh; and allowed to stand at 25° C. for 30 min. Two milliliters of the resultant cell suspension was injected into a glass cuvette, commercialized by Hitachi, Ltd., Tokyo, Japan, and analyzed on “HITACHI 650-40”, a fluorescence spectrophotometer commercialized by Hitachi, Ltd., Tokyo, Japan.
# One hundred microliter aliquots of the cell suspension in Example 4 were placed in commercially available 96-well microplates, followed by placing 0.1 ml/well of any of trehalose solutions with different concentrations of 1, 2, 5, 10, 20, 50, 100, 200, 500, 1,000, and 2,000 mM, prepared with trehalose and the same buffer for calcium ion assay as used in Example 4; and assayed on “FLUOROSCAN ASCENT W/DF”, an automatic fluorescence spectrophotometer for multi-plates, Dainippon Pharmaceutical Co., Ltd., Tokyo, Japan, at an excitation wavelength of 494 nm and a fluorescence wavelength of 516 nm, followed by calculating the integral values for the detected fluorescence intensities.
smiles,measurement,setting,value
OC[C@H]1O[C@H](O[C@H]2O[C@H](CO)[C@@H](O)[C@H](O)[C@H]2O)[C@H](O)[C@@H](O)[C@@H]1O [Trehalose],Sweetening power,[1],45%
same,Concentration at which trehalose is detectable,"[2]; trehalose receptor cells, fluorescence assay of Table 5",≥ 5 mM
same,Fluorescence intensity (integral value),[2]; trehalose solution 1 mM,0.2
same,Fluorescence intensity (integral value),[2]; trehalose solution 2 mM,0.5
same,Fluorescence intensity (integral value),[2]; trehalose solution 5 mM,10
same,Fluorescence intensity (integral value),[2]; trehalose solution 10 mM,19
same,Fluorescence intensity (integral value),[2]; trehalose solution 20 mM,29
same,Fluorescence intensity (integral value),[2]; trehalose solution 50 mM,45
same,Fluorescence intensity (integral value),[2]; trehalose solution 100 mM,82
same,Fluorescence intensity (integral value),[2]; trehalose solution 200 mM,159
same,Fluorescence intensity (integral value),[2]; trehalose solution 500 mM,421
same,Fluorescence intensity (integral value),"[2]; trehalose solution 1,000 mM",670
same,Fluorescence intensity (integral value),"[2]; trehalose solution 2,000 mM",720
